Assay results from ChEMBL document CHEMBL1201862, “PubChem BioAssay data set” (2004).
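Protocol summary: plate cells (96-well), add compound at 5 concentrations, incubate 48 h, interpolate endpoints linearly. Here, GI50 denotes the concentration required for 50% inhibition of growth.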 Active and inactive are the calls of the source. No stated cut-off is given here; in the data, active = GI50 up to about 1.1 µM and inactive = higher.

Legend:
Assay in all cases: DTP human tumour cell line panel, 48 h
HOP-92 = system: HOP-92
SN12C = system: SN12C
SNB-19 = system: SNB-19
HL-60 = system: HL-60
UACC-62 = system: UACC-62
RPMI-8226 = system: RPMI-8226
NCI-H522 = system: NCI-H522
CCRF-CEM = system: CCRF-CEM
SW-620 = system: SW-620
MOLT-4 = system: MOLT-4
SF-268 = system: SF-268
A549 = system: A549
UO-31 = system: UO-31
NCI-H226 = system: NCI-H226
NCI-H460 = system: NCI-H460
UACC-257 = system: UACC-257
ACHN = system: ACHN

Measured: GI50

COC(=O)C1(C)NCCc2c1[nH]c1ccccc21 (stereo not drawn)
inactive: HOP-92 > 100 µM | SN12C > 100 µM | SNB-19 > 100 µM | HL-60 > 10 µM | UACC-62 > 100 µM | RPMI-8226 > 100 µM | NCI-H522 > 100 µM | CCRF-CEM > 100 µM | SW-620 > 100 µM | MOLT-4 > 100 µM | SF-268 > 100 µM | A549 > 100 µM | UO-31 > 100 µM

C=C1CCC(OC(C)=O)C2(C)C(OC(C)=O)CC3OC3(C)C2C(OC(C)=O)C2C(C)C(=O)OC2C1Cl (stereo not drawn)
inactive: HOP-92 > 100 µM | SN12C > 100 µM | NCI-H226 > 100 µM | NCI-H460 > 100 µM | SNB-19 > 100 µM | UACC-257 > 100 µM | HL-60 > 100 µM | UACC-62 > 100 µM | RPMI-8226 > 100 µM | ACHN > 100 µM | CCRF-CEM > 100 µM | SW-620 > 100 µM | MOLT-4 > 100 µM | SF-268 > 100 µM | A549 > 100 µM | UO-31 > 100 µM

Cc1nc2ccccn2c1/N=N/c1ccc(C(=O)NN)cc1
inactive: HOP-92 46.5 µM | SN12C 27.7 µM | NCI-H226 25.5 µM | SNB-19 49.5 µM | UACC-257 97.5 µM | HL-60 9.31 µM | UACC-62 80.2 µM | RPMI-8226 28.4 µM | ACHN 36 µM | CCRF-CEM 4.59 µM | SW-620 49.3 µM | MOLT-4 5.02 µM | SF-268 19.4 µM | A549 24.9 µM | UO-31 36.9 µM

CN(C)C(=N)c1ccccc1
inactive: HOP-92 > 100 µM | SN12C > 100 µM | NCI-H226 > 100 µM | NCI-H460 > 100 µM | SNB-19 > 100 µM | UACC-257 > 100 µM | HL-60 > 100 µM | NCI-H522 > 100 µM | SW-620 > 100 µM | A549 > 100 µM | UO-31 > 100 µM

COC(=O)C1CC2CC(=NNC(N)=O)CC2C1 (stereo not drawn)
inactive: HOP-92 > 100 µM | SN12C > 100 µM | NCI-H460 > 100 µM | SNB-19 > 100 µM | UACC-257 > 100 µM | HL-60 > 100 µM | UACC-62 > 100 µM | RPMI-8226 > 100 µM | ACHN > 100 µM | NCI-H522 > 100 µM | CCRF-CEM > 100 µM | SW-620 > 100 µM | MOLT-4 > 100 µM | SF-268 > 100 µM | A549 > 100 µM | UO-31 > 100 µM

C[C@]12CCC(=O)C(OC(=O)c3ccc([N+](=O)[O-])cc3)=C1CCC2=O
inactive: HOP-92 > 100 µM | SN12C > 100 µM | NCI-H226 95.5 µM | NCI-H460 > 100 µM | SNB-19 > 100 µM | UACC-257 > 100 µM | HL-60 > 100 µM | UACC-62 > 100 µM | RPMI-8226 > 100 µM | ACHN > 100 µM | NCI-H522 > 100 µM | CCRF-CEM > 100 µM | SW-620 > 100 µM | MOLT-4 > 100 µM | SF-268 > 100 µM | A549 > 100 µM

Cc1ccc(S(=O)(=O)N/N=C2\C(=O)C3CC2C(Cl)C3Cl)cc1 (stereo not drawn)
inactive: HOP-92 70.8 µM | SN12C > 100 µM | NCI-H226 > 100 µM | NCI-H460 > 100 µM | SNB-19 > 100 µM | UACC-257 > 100 µM | HL-60 > 100 µM | UACC-62 > 100 µM | RPMI-8226 > 100 µM | ACHN > 100 µM | CCRF-CEM > 100 µM | SW-620 > 100 µM | MOLT-4 > 100 µM | SF-268 > 100 µM | A549 > 100 µM | UO-31 > 100 µM

[C-]#[N+][C@@H]1C2[C@H](CC[C@@]1(C)O)C(=C)CC[C@@H]2[C@@]1(C)CC[C@H](Cl)C(C)(C)O1 (stereo partly drawn)
inactive: SN12C 4.38 µM | NCI-H226 4.46 µM | NCI-H460 8.3 µM | SNB-19 7.1 µM | UACC-257 8.32 µM | HL-60 1.92 µM | UACC-62 3.59 µM | RPMI-8226 2.51 µM | ACHN 4.22 µM | NCI-H522 4.42 µM | CCRF-CEM 2.77 µM | SW-620 5.64 µM | SF-268 11 µM | A549 8.02 µM | UO-31 2.06 µM

CCC12C=C(C(=O)OC)N3c4ccccc4C4CCN(CCC1)C2C43 (stereo not drawn)
inactive: HOP-92 34.8 µM | SN12C 83.8 µM | NCI-H226 25.3 µM | SNB-19 72.4 µM | UACC-257 34.2 µM | HL-60 78.9 µM | UACC-62 > 100 µM | RPMI-8226 50.6 µM | ACHN 62.5 µM | NCI-H522 75.7 µM | CCRF-CEM > 100 µM | SW-620 59.7 µM | MOLT-4 66.8 µM | SF-268 > 100 µM | A549 > 100 µM | UO-31 77.3 µM

C#CC1(O)CCC2C3CCc4cc(Oc5nc(F)nc(-c6c7ccccc7c7n6CCS7)n5)ccc4C3CC[C@@]21C (stereo partly drawn)
inactive: HOP-92 23.8 µM | NCI-H226 34 µM | NCI-H460 35.4 µM | SNB-19 24.6 µM | UACC-257 36.1 µM | HL-60 19.8 µM | UACC-62 21.1 µM | RPMI-8226 19.6 µM | ACHN 29.6 µM | NCI-H522 4.37 µM | CCRF-CEM 11 µM | SW-620 32.6 µM | MOLT-4 26.9 µM | SF-268 29 µM | A549 33.6 µM | UO-31 28.6 µM

CC1=N/C(=C\c2cccc3ccccc23)C(=O)O1
inactive: HOP-92 > 100 µM | SN12C > 100 µM | NCI-H460 > 100 µM | SNB-19 > 100 µM | UACC-257 > 100 µM | HL-60 > 100 µM | UACC-62 > 100 µM | RPMI-8226 > 100 µM | ACHN > 100 µM | NCI-H522 > 100 µM | CCRF-CEM > 100 µM | SW-620 > 100 µM | MOLT-4 > 100 µM | SF-268 > 100 µM | A549 > 100 µM | UO-31 > 100 µM

CC1CC(=O)Nc2ccccc2N1C(=O)CN1CCC(CCCCN(C)C)CC1 (stereo not drawn)
inactive: SN12C > 100 µM | NCI-H226 > 100 µM | NCI-H460 > 100 µM | SNB-19 > 100 µM | UACC-257 > 100 µM | HL-60 > 100 µM | UACC-62 > 100 µM | RPMI-8226 > 100 µM | ACHN > 100 µM | NCI-H522 > 100 µM | CCRF-CEM > 100 µM | SW-620 > 100 µM | MOLT-4 > 100 µM | SF-268 > 100 µM | A549 > 100 µM | UO-31 > 100 µM

O=C(CC1Sc2ccccc2NC1=O)Nc1ccc([N+](=O)[O-])cc1[N+](=O)[O-] (stereo not drawn)
inactive: HOP-92 11 µM | SN12C 16.1 µM | NCI-H226 11.9 µM | NCI-H460 23.7 µM | SNB-19 19.5 µM | UACC-257 19.9 µM | HL-60 17.8 µM | UACC-62 15.4 µM | RPMI-8226 11.3 µM | ACHN 15.3 µM | CCRF-CEM 15.6 µM | SW-620 18.4 µM | MOLT-4 20.1 µM | SF-268 16.6 µM | A549 26.5 µM | UO-31 12 µM
